Results: article PMC5046141, “Discovery of Isoquinolinoquinazolinones as a Novel Class of Potent PPARγ Antagonists with Anti-adipogenic Effects” (Scientific Reports, 2016)

Tests used:
R288G mutant PPARγ2 = target: T1, R288G mutant PPARγ2 (Mus musculus, UniProt P37238, R316G); assay: PPRE-Luc reporter assay with R288G mutant PPARγ2 in 3T3-L1 cells; details: 5 μM, 12 h
T1 sequence (P37238 1-505 R316G): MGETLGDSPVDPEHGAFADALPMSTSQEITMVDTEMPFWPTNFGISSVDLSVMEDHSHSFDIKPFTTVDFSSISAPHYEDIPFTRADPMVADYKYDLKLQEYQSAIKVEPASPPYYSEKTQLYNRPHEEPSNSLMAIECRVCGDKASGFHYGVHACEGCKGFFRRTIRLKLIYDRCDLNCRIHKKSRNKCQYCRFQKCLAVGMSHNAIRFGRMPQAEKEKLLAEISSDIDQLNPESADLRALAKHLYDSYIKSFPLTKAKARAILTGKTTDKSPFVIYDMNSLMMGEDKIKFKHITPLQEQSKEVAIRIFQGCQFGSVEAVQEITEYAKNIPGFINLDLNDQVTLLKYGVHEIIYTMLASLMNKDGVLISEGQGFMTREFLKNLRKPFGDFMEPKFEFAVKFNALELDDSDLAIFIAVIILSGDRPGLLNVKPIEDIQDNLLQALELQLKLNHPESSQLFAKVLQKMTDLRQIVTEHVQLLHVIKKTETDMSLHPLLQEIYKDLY
T1 sequence (P28700 1-467 partner): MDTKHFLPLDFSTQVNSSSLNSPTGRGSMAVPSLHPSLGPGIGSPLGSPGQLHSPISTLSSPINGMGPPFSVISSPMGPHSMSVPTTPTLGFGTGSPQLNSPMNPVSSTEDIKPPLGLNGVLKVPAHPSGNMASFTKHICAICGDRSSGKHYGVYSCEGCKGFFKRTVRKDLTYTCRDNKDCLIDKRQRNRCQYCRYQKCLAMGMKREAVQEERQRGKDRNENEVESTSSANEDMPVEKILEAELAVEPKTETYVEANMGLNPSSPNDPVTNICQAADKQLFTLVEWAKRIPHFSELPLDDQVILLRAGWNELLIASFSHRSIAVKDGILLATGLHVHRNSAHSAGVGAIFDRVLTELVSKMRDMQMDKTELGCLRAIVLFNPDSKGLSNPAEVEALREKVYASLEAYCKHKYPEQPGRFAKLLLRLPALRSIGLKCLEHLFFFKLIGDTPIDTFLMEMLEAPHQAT

3T3-L1 cells = assay: Expression of adipogenesis markers (immunoblotting, RT-PCR) in MDI-differentiated 3T3-L1 cells; format: cell-based, mouse; details: after MDI-induced differentiation
Procedure: PPARγ alone or together with CCAAT-enhancer-binding protein α (C/EBPα) regulates many adipocyte genes that are involved in creating and maintaining the adipocyte phenotype. To further analyze the effect of isoquinolinoquinazolinones on adipogenesis, the expression of the adipocyte marker genes (C/EBPα and PPARγ) was analyzed. The differentiation of 3T3-L1 cells into adipocytes was induced by incubating in MDI induction medium for 2 days followed by incubation in differentiation medium for an additional 6 days. After MDI-induced adipocyte differentiation of 3T3-L1 cells, adipogenic transcriptional factors were analyzed. The transcriptional factors C/EBPα and PPARγ were inhibited by 8n and 8o in terms of both protein (Fig. 2C,D) and RNA (Fig. 2E,F) levels.
Total cellular RNA was prepared using TRIzol reagent (Life Technologies) according to the manufacturer’s instructions. Random-primed cDNAs were synthesized from 1 μg of total RNA using Super-Script III First-Strand Synthesis System (Life Technologies). The following conditions were used for PCR: initial denaturation at 94 °C for 1 min; 28–30 cycles of denaturation at 94 °C for 30 s, annealing at a temperature optimized for each primer pair for 30 s, extension at 72 °C for 30 s; final extension at 72 °C for 5 min. […] RNA levels were quantified by image software, Multi Gauge, V3.0 (FUJIFILM).
At the end of differentiation, 3T3-L1 cells were washed with PBS and lysed in a lysis buffer (1% NP-40, 25 mM HEPES (pH 7.5), 10% glycerol, 150 mM NaCl, 25 mM NaF, 0.25% sodium deoxycholate, 1 mM EDTA, 1 mM Na3VO4, 10 μg/mL aprotinin, 10 μg/mL leupeptin, and 250 μM phenylmethanesulfonyl fluoride). […] Horseradish peroxidase-labeled secondary antibodies were detected and visualized using chemiluminescent western blotting reagent (Millipore). Protein expression levels were quantified by image software, Multi Gauge, V3.0 (FUJIFILM).

For `COc1cc2cc3n(c(=O)c2cc1OC)CNc1cc(Cl)ccc1-3` [Compound 8o, 3-Chloro-10,11-dimethoxy-5H-isoquinolino[2,3-c]quinazolin-8(6H)-one], the “effect of Arg288 to Gly substitution on the compound's inhibition of PPARγ2 activity” value (R288G mutant PPARγ2) was “abolished the inhibitory effect”, the “C/EBPα and PPARγ expression, protein and RNA levels” value (3T3-L1 cells) was “inhibited” and the “mRNA expression of adiponectin and fatty acid synthase (FAS)” value (3T3-L1 cells) was “strongly reduced”.

For `COc1cc2cc3n(c(=O)c2cc1OC)CNc1ccc(Cl)cc1-3` [Compound 8n, 2-Chloro-10,11-dimethoxy-5H-isoquinolino[2,3-c]quinazolin-8(6H)-one], the “C/EBPα and PPARγ expression, protein and RNA levels” value (3T3-L1 cells) was “inhibited”.
